The test system of the assay is M. tuberculosis H37Rv growth inhibition. Description: M. tuberculosis H37Rv growth inhibitors, H37Rv strain (AID 1626). To be noted: for IC90: measured here: IC90 against H37Rv; for CC50: measured here: Vero cell cytotoxicity.

A word on the IC50: it is the concentration needed to halve the response being measured. One may read the IC90 as the concentration at which the effect reaches the 90% level. Low readings indicate greater potency, high ones weaker potency. For orientation: CC50 means the concentration that lowers cell viability or growth by half. Lower therefore signals greater toxicity to the cells. Consider `CC(C)(C)c1ccc(-c2cn(-c3ccc(Br)cc3)c3[n+]2CCCS3)cc1`, for which the IC50 was 2.62 µM, the IC90 came out at 4.97 µM and the cytotoxic concentration (CC50) was 13.3 µM.

Consider `COC(=O)c1cc(=O)n(-c2ccccc2)c(=Nc2ccccc2)s1`, for which the IC50 is 5.19 µM, the IC90 is 17.7 µM and the CC50 came to 27.6 µM.

On to `CC[C@H]1CC2CN3CCc4c([nH]c5c([C@H]6C[C@H]7[C@H](CC)CN(C)[C@@H](Cc8c6[nH]c6ccccc86)[C@H]7C(=O)OC)c(OC)ccc45)C(C(=O)OC)(C2)C13`, for which the IC50 is 5.85 µM, the IC90 amounted to 7.6 µM and the CC50 came out at 20.8 µM.

`COc1c(C)cc(C(=O)C2CCCN(Cc3cccc(C)n3)C2)cc1C` (stereo not given): the IC50 was 18.6 µM, the IC90 is > 100 µM and the CC50 was > 40 µM.

Turning to `CCOC(=O)c1ccccc1-n1c(C)cc(C2N=C(N)Nc3nc4ccccc4n32)c1C` (stereo not given), the IC50 was 11.5 µM and the IC90 is 13.7 µM.

Consider `COC(=O)c1ccc(Cn2cc(C(F)(F)F)cc([N+](=O)[O-])c2=O)cc1`, for which the IC50 is 29.9 µM and the IC90 was > 100 µM.

On to `CCCc1ccc(C2C3=C(CC(C)(C)CC3=O)NC3=C2C(=O)c2ccccc23)cc1` (stereo not given), for which the IC50 is 5.54 µM, the IC90 was > 100 µM and the CC50 is > 40 µM.

As for `N#Cc1ccc(/C=C/C(=O)c2ccc3c(c2)OCO3)cc1`, the IC90 is > 100 µM.

For the molecule `COc1ccc(CNc2ncnc3cc(Cl)ccc23)cc1`, the IC50 is 58.5 µM and the IC90 was > 100 µM.

For the molecule `CCc1sc(N)nc1-c1ccccc1`, the IC90 was > 100 µM.

Consider `Cc1ccc(NC(=O)CNCc2ccccc2)cc1Br`, for which the IC50 was 32.3 µM and the IC90 is > 100 µM.

With `CCC(=O)Nc1nc2ccccc2n1Cc1ccc(Cl)cc1`, the IC50 is < 0.195 µM, the IC90 was > 100 µM and the CC50 is > 40 µM.

On to `Cc1ccc(Oc2cc(NC(=O)CCCn3nc([N+](=O)[O-])cc3C)cc([N+](=O)[O-])c2)cc1`, for which the IC50 was 12.1 µM, the IC90 is 13.6 µM and the CC50 is > 40 µM.

In the case of `COc1ccc(-c2cc3nc(C)c(CCC(=O)NCc4ccc(F)cc4)c(C)n3n2)c(OC)c1`, the CC50 was > 40 µM.

As to `CCn1c(NC(=O)c2nn(C)cc2Br)nc2ccccc21`, the IC50 was 6.62 µM, the concentration for an effect of 90% (IC90) was determined as 13.2 µM and the CC50 was > 40 µM.

As to `CCCCOC(=O)c1ccc(NC(=O)C(=O)NCCN(CC)CC)cc1`, the IC50 is 35.7 µM and the IC90 was > 100 µM.

For the molecule `CCOC(=O)c1nc2sc3c(c2c(=O)[nH]1)CCC(C)C3` (stereo not given), the IC50 was 10.4 µM and the IC90 is > 100 µM.

Turning to `Cc1ccn2c(Nc3ccccc3)c(-c3ccccn3)nc2c1`, the IC50 was 2.88 µM, the IC90 was found to be 3.3 µM and the CC50 was 2.12 µM.

As to `CCCCCCn1c(=O)c(C(=O)Nc2nc(CC(=O)OCC)cs2)c(O)c2ccccc21`, the IC50 is < 0.195 µM, the IC90 was < 0.195 µM and the CC50 was found to be 4.53 µM.

Consider `O=c1oc2ccccc2c(Nc2ccc3ccccc3c2)c1[N+](=O)[O-]`, for which the IC50 was 7.32 µM, the IC90 is > 100 µM and the CC50 is > 40 µM.

As to `Cc1csc(NC(=O)CSc2ccc(-c3ccccn3)nn2)n1`, the concentration for half-maximal inhibition (IC50) was 5.48 µM, the IC90 is 6.15 µM and the cytotoxic concentration (CC50) was > 40 µM.

As to `Cc1ccc(OCCN2CCN(CC(O)Cn3c4ccccc4c4ccccc43)CC2)cc1` (stereo not given), the IC50 is 9.21 µM, the IC90 was 11.4 µM and the CC50 stood at 21.5 µM.

Take `COc1cccc(C(=O)Nc2ccc(-c3nc4ccccc4o3)c(O)c2)c1`: the IC50 was 8.7 µM, the IC90 is > 100 µM and the CC50 was > 40 µM.

Turning to `COc1ccc(CCNc2cc(C)nc3c(-c4ccc(Cl)cc4)c(C)nn23)cc1OC`, the half-maximal inhibitory concentration (IC50) is 1 µM, the IC90 came to 5.53 µM and the CC50 is > 40 µM.

Turning to `COc1ccc(N2CN=C3SCC(=O)N3C2)cc1`, the IC50 was 46.5 µM and the IC90 was > 100 µM.

As to `CC1C(c2ccccc2)N(C)C(c2ccccc2)CC1(O)c1ccccc1` (stereo not given), the IC50 was 5.85 µM, the IC90 was determined as 6.61 µM and the CC50 was > 40 µM.

Regarding `CCN(CC)c1ccc(/C=C(/C#N)c2nc3ccccc3[nH]2)c(OC(C)C)c1`, the IC50 was 0.488 µM, the IC90 stood at 0.936 µM and the CC50 was > 40 µM.

On to `Cc1cccc(Oc2ccc(N)cc2)c1`, for which the IC90 was > 100 µM.

As for `CNc1cc(C(F)(F)F)nc(-c2ccccn2)n1`, the IC50 was 40.7 µM and the IC90 was > 100 µM.

On to `OC1(C#Cc2c(-c3ccsc3)oc3ccc(N4CCOCC4)cc23)CCCCC1`, for which the IC50 is 15 µM, the IC90 is > 100 µM and the CC50 was > 40 µM.

In the case of `Clc1ccc(COC(Cn2ccnc2)c2ccc(Cl)cc2Cl)c(Cl)c1` (stereo not given), the IC50 was 2.85 µM, the IC90 is 3.27 µM and the CC50 was 36.8 µM.

On to `COc1cccc(C(=O)/C=C/c2ccc(N3CCCCC3)c([N+](=O)[O-])c2)c1`, for which the IC50 was 29.4 µM, the IC90 is > 100 µM and the CC50 was 27.2 µM.

With `O=C1Nc2ccccc2C1=Nc1ccc(S(=O)(=O)Nc2nccs2)cc1`, the IC50 is 4.54 µM and the IC90 came out at 11.3 µM.

Take `Cc1ccc(C(=O)/C=C/c2ccc(-c3ccc(C)cc3)o2)cc1`: the CC50 was found to be 21.9 µM.

Consider `N#Cc1ncc(-c2ccc3c(c2)OCCOCCOCCOCCOCCO3)nc1C#N`, for which the IC50 was 1.8 µM, the IC90 amounted to 3.08 µM and the CC50 came out at 22.6 µM.

For `Cc1sc(N)nc1-c1ccccc1`, the 90% effect concentration (IC90) was > 100 µM.

In the case of `O=c1c2c(nc3c(-c4ccc(Cl)cc4)c[nH]n13)CCC2`, the IC50 is 12.9 µM, the IC90 is 25.6 µM and the CC50 was determined as 18.9 µM.

Turning to `COc1ccc(-c2nc(NC(=O)c3cc(C(C)(C)C)nn3C)sc2C)cc1`, the IC50 was 4.42 µM, the IC90 amounted to 8.83 µM and the CC50 is > 40 µM.

For the molecule `CCOc1ccc(-c2nnc(N)o2)cc1`, the IC50 is 57.8 µM and the IC90 was > 100 µM.

Turning to `O=C(Nc1ccc(F)cc1F)Nc1csc2ccccc12`, the IC50 was < 0.391 µM, the IC90 stood at 52.7 µM and the CC50 was > 40 µM.

`CCOC(=O)CNC(=O)CSc1nc(-c2ccccc2)ns1`: the IC50 is 1.48 µM and the IC90 was determined as 3.2 µM.

As for `O=c1cc(-c2ccccc2)nc(N2CCN(Cc3ccc4c(c3)OCO4)CC2)[nH]1`, the IC50 was 89 µM and the IC90 is > 100 µM.

`c1ccc(-c2nc(N3CCOCC3)c3ccccc3n2)nc1`: the IC50 was 5.22 µM, the IC90 came out at 14.5 µM and the CC50 was > 40 µM.

As for `Cn1c(-c2ccccc2)c(C(=O)CCl)c2ccccc21`, the IC50 is 1.69 µM, the concentration for an effect of 90% (IC90) came out at 4.57 µM and the CC50 stood at 4.07 µM.

As to `CC1CCCCN1C(=O)COC(=O)/C=C/c1ccc2ccccc2n1` (stereo not given), the IC50 was 0.807 µM, the IC90 worked out at 5.9 µM and the CC50 is > 40 µM.

For the molecule `CC1CCN(C(=O)COC(=O)CCc2c[nH]c3ccccc23)CC1`, the IC50 is 0.34 µM and the IC90 was > 100 µM.

As to `Cc1ccccc1NC(=O)Nc1ccc(C(F)(F)F)cc1`, the IC90 was > 100 µM and the CC50 turned out to be 23.5 µM.

Regarding `Cc1ccc2nc(N(CCCN(C)C)C(=O)c3ccc4c(c3)CCCC4)sc2c1`, the IC50 was 8.72 µM, the IC90 turned out to be 11.8 µM and the CC50 came to 22.6 µM.

In the case of `O=C(C1CCN(c2nnc(-n3cccc3)s2)CC1)N1CCN(c2cccc(C(F)(F)F)c2)CC1`, the IC50 is 0.258 µM, the IC90 was 1.05 µM and the CC50 was > 40 µM.

Consider `Cc1cc(NC(=O)c2c(F)cccc2Cl)n(-c2nc3ccccc3[nH]2)n1`, for which the IC50 is 16.5 µM, the IC90 came out at 25.9 µM and the CC50 is > 40 µM.

For `Cc1ccc(S(=O)(=O)Nc2ccc(NC(=O)c3c(F)c(F)c(F)c(F)c3F)cc2)cc1`, the CC50 is 21.8 µM.

On to `O=[N+]([O-])c1cc(O)c2ncccc2c1`, for which the IC50 was 2.71 µM, the IC90 stood at 3.39 µM and the CC50 was 7.36 µM.

For `Cc1cc(C)n(-c2nc(SCC(=O)O)c3c4c(sc3n2)COC(C)(C)C4)n1`, the IC50 is 9.72 µM, the IC90 is > 100 µM and the CC50 was > 40 µM.

As to `CCOC(=O)c1ccc(NCc2nc3ccccc3[nH]2)cc1`, the half-inhibitory concentration (IC50) was 43.5 µM and the IC90 was > 100 µM.

Take `Nc1ccc(Oc2ccc(Br)cc2)cc1`: the IC50 was 30.8 µM and the IC90 is > 100 µM.

As to `CCOC(=O)N1CCN(C(=O)CSc2nc(-c3cccc(C)c3)ns2)CC1`, the IC50 was 0.734 µM, the IC90 came out at 0.828 µM and the CC50 was > 40 µM.

For the molecule `COc1cccc2c1C(=O)c1c(O)c3c(c(O)c1C2=O)C[C@@](O)(C(=O)CO)C[C@@H]3O[C@H]1C[C@H](N)[C@H](O)[C@H](C)O1`, the IC50 is 13 µM, the IC90 is > 100 µM and the CC50 was found to be 7.25 µM.

Regarding `CC(C)(C)C(=O)/C(=C/c1ccncc1)n1cncn1`, the IC50 is 8.39 µM, the IC90 came to 11.7 µM and the CC50 was 5.11 µM.

Regarding `CCCCCCOc1cccc(N)c1`, the IC50 was 16.9 µM and the IC90 was > 100 µM.

Regarding `CCc1ccc2c(c1)/C(=C/C(=O)c1cccs1)C(=O)N2`, the IC50 is 3.06 µM, the IC90 amounted to 12.2 µM and the CC50 is 18.9 µM.

As to `CCN(CC)c1ccc(CNc2nc3ccccc3n2CCN2CCCCC2)cc1`, the IC50 was 36.7 µM, the IC90 stood at 43.8 µM and the CC50 was > 40 µM.

With `CCC(CC)c1nnc(NC(=O)c2ccc3ccccc3n2)s1`, the IC50 was 0.814 µM, the IC90 came to 1.48 µM and the CC50 was found to be 35.7 µM.

As for `O=C(c1c[nH]c(C(=O)N2CCN(c3ccccc3F)CC2)c1)c1cccc(Cl)c1Cl`, the CC50 was 16.9 µM.

For `CC(C)Nc1ccc(Nc2ccnc3cc4ccccc4cc23)cc1`, the IC50 was 5.31 µM, the IC90 came to 9.7 µM and the CC50 turned out to be 3.3 µM.

In the case of `O=C(Nc1nc2ccccc2[nH]1)c1cccc([N+](=O)[O-])c1`, the IC90 is > 100 µM.

The record behind these values is PubChem BioAssay AID1626 (SRMLSC, 2009).
